Values belong to the molecule of their own block, whether it stands above or below them.
Legend:
mouse = mouse models ref 5; cited from earlier work
rat = rat models ref 5; cited from earlier work
human δ receptor (hDOPr) [1] = biological target: T1, human δ receptor (hDOPr) (Homo sapiens, UniProt P41143); test: [3H]diprenorphine radioligand; type: binding
human δ receptor (hDOPr) [2] = biological target: T1, human δ receptor (hDOPr); test: cell-based
Nephelometry = type: physicochemical
δ receptor = δ receptor (Homo sapiens, UniProt P41143); test: PathHunter β-arrestin recruitment assay in CHO-OPRD1 cells; type: cell-based
[3] = HBSS + 25 mM HEPES and 10% FBS (β-arrestin assay buffer)
[4] = phosphate buffered saline solution, data not shown

T1 sequence (P41143 whole entry): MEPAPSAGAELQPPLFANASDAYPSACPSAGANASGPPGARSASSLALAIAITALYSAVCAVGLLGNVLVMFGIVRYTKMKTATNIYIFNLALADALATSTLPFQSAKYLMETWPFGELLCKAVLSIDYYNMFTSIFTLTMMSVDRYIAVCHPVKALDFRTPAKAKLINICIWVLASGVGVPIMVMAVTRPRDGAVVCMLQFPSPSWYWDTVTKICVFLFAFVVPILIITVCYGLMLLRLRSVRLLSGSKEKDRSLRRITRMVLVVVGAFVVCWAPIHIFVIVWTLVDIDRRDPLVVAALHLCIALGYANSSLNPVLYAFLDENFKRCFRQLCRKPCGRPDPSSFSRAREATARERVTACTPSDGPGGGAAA
Chain of δ receptor (P41143 whole entry): as above

Compound: CCN(CC)C(=O)c1ccc(C2=CC3(CCNCC3)Oc3cccc(O)c32)cc1 [ADL5859, N,N-diethyl-4-(5-hydroxyspiro-[chromene-2,4′-piperidine]-4-yl)benzamide]
- seizures (mouse): no seizures
- seizures (rat): no seizures

Compound: CN1CC[C@]2(c3cccc(O)c3)Cc3nc4ccccc4cc3C[C@H]2C1 [TAN67]
- Ki (human δ receptor (hDOPr) [1]): 10 nM
- affinity ratio (vehicle Ki)/(2 Ki) (human δ receptor (hDOPr) [1]; effect of 2 (10 μM) on the orthosteric agonist's Ki): 3
- Kd (human δ receptor (hDOPr) [2]): 3.98 nM

- concentrations showing particulate matter (Nephelometry; [3]): above 3 μM
- concentrations showing particulate matter (Nephelometry; [4]): above 1 μM
Compound: Cc1ccccc1COc1ccc(C2C3=C(CC(C)(C)CC3=O)OC3=C2C(=O)CC(C)(C)C3)cc1 [compound 2, 3,3,6,6-tetramethyl-9-(4-((2-methylbenzyl)oxy)phenyl)-3,4,5,6,7,9-hexahydro-1H-xanthene-1,8(2H)-dione]

- PAM activity at the δ receptor (δ receptor; PAM mode, EC20 of leu-enkephalin): robust potentiation
Compound: CC1(C)CC(=O)C2=C(C1)OC1=C(C(=O)CC(C)(C)C1)C2c1ccc(OCc2ccc(F)cc2)cc1 [compound 7]

- selectivity μ/δ (δ receptor; potency ratio of PAM mode EC50 values, β-arrestin recruitment): >33
Compound: CC1(C)CC(=O)C2=C(C1)OC1=C(C(=O)CC(C)(C)C1)C2c1ccc(OCc2ccccc2Cl)cc1 [compound 8]

- concentrations showing particulate matter (Nephelometry; [3]): above 3 μM
- concentrations showing particulate matter (Nephelometry; [4]): above 1 μM
Compound: CC1(C)CC(=O)C2=C(C1)OC1=C(C(=O)CC(C)(C)C1)C2c1ccc(OCc2ccccc2Br)cc1 [compound 10, 9-(4-((2-Bromobenzyl)oxy)phenyl)-3,3,6,6-tetramethyl-3,4,5,6,7,9-hexahydro-1H-xanthene-1,8(2H)-dione]
